Assay results reported in PubChem BioAssay AID1918958 (Molecular Pharmacology Branch, DTP, NCI, 2023).

Tested on: NCI-H196 complex spheroid viability
Assay: Anticancer human tumor NCI-H196 cell line growth inhibition [LSD1];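 further: spheroids exposed to agents for 7 days before readout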;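 on viability, T/C: 100% = DMSO vehicle control viability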
Settings: for IC50: curve of first compound; for viability, T/C: stronger effect = lower value
In short: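 Complex spheroids of tumor cells with HUVEC and human MSCs, exposed to iadademstat combined with other agents. Each agent tested in half-log steps from near clinical Cmax (else 10 microM top), DMSO ≤0.25%.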

[1] = second compound 0.1 µM, first compound 0.00949 µM
[2] = second compound 0.1 µM, first compound 0.03 µM
[3] = second compound 0.1 µM, first compound 0.0949 µM
[4] = second compound 0.1 µM, first compound 0.3 µM
[5] = second compound 0.1 µM, first compound 0.949 µM
[6] = second compound 0.1 µM, first compound 3 µM
[7] = second compound 0.316 µM, first compound 0.00949 µM
[8] = second compound 0.316 µM, first compound 0.03 µM
[9] = second compound 0.316 µM, first compound 0.0949 µM
[10] = second compound 0.316 µM, first compound 0.3 µM
[11] = second compound 0.316 µM, first compound 0.949 µM
[12] = second compound 0.316 µM, first compound 3 µM
[13] = second compound 1 µM, first compound 0.00949 µM
[14] = second compound 1 µM, first compound 0.03 µM
[15] = second compound 1 µM, first compound 0.0949 µM
[16] = second compound 1 µM, first compound 0.3 µM
[17] = second compound 1 µM, first compound 0.949 µM
[18] = second compound 1 µM, first compound 3 µM
[19] = second compound 3.16 µM, first compound 0.00949 µM
[20] = second compound 3.16 µM, first compound 0.03 µM
[21] = second compound 3.16 µM, first compound 0.0949 µM
[22] = second compound 3.16 µM, first compound 0.3 µM
[23] = second compound 3.16 µM, first compound 0.949 µM
[24] = second compound 3.16 µM, first compound 3 µM
[25] = second compound 10 µM, first compound 0.00949 µM
[26] = second compound 10 µM, first compound 0.03 µM
[27] = second compound 10 µM, first compound 0.0949 µM
[28] = second compound 10 µM, first compound 0.3 µM
[29] = second compound 10 µM, first compound 0.949 µM
[30] = second compound 10 µM, first compound 3 µM

Cn1ncnc1C1c2n[nH]c(=O)c3cc(F)cc(c23)NC1c1ccc(F)cc1 (stereo not given) + NC1CCC(NC2CC2c2ccccc2)CC1
IC50 (second compound 0.1 µM): > 100 nM
IC50 (second compound 0.316 µM): > 100 nM
IC50 (second compound 1 µM): > 100 nM
IC50 (second compound 3.16 µM): > 100 nM
IC50 (second compound 10 µM): > 100 nM
viability, T/C (second compound 0.1 µM, first compound 0.000316 µM): 93.4%
viability, T/C (second compound 0.1 µM, first compound 0.001 µM): 110%
viability, T/C (second compound 0.1 µM, first compound 0.00316 µM): 95.6%
viability, T/C (second compound 0.1 µM, first compound 0.01 µM): 94.8%
viability, T/C (second compound 0.1 µM, first compound 0.0316 µM): 98.5%
viability, T/C (second compound 0.1 µM, first compound 0.1 µM): 99.6%
viability, T/C (second compound 0.316 µM, first compound 0.000316 µM): 100%
viability, T/C (second compound 0.316 µM, first compound 0.001 µM): 102%
viability, T/C (second compound 0.316 µM, first compound 0.00316 µM): 101%
viability, T/C (second compound 0.316 µM, first compound 0.01 µM): 92.8%
viability, T/C (second compound 0.316 µM, first compound 0.0316 µM): 93.9%
viability, T/C (second compound 0.316 µM, first compound 0.1 µM): 92.5%
viability, T/C (second compound 1 µM, first compound 0.000316 µM): 95.5%
viability, T/C (second compound 1 µM, first compound 0.001 µM): 98.4%
viability, T/C (second compound 1 µM, first compound 0.00316 µM): 97.4%
viability, T/C (second compound 1 µM, first compound 0.01 µM): 98.1%
viability, T/C (second compound 1 µM, first compound 0.0316 µM): 94.3%
viability, T/C (second compound 1 µM, first compound 0.1 µM): 94.4%
viability, T/C (second compound 3.16 µM, first compound 0.000316 µM): 90.7%
viability, T/C (second compound 3.16 µM, first compound 0.001 µM): 99.8%
viability, T/C (second compound 3.16 µM, first compound 0.00316 µM): 98.3%
viability, T/C (second compound 3.16 µM, first compound 0.01 µM): 88.8%
viability, T/C (second compound 3.16 µM, first compound 0.0316 µM): 95.9%
viability, T/C (second compound 3.16 µM, first compound 0.1 µM): 93.9%
viability, T/C (second compound 10 µM, first compound 0.000316 µM): 97.2%
viability, T/C (second compound 10 µM, first compound 0.001 µM): 106%
viability, T/C (second compound 10 µM, first compound 0.00316 µM): 95.9%
viability, T/C (second compound 10 µM, first compound 0.01 µM): 104%
viability, T/C (second compound 10 µM, first compound 0.0316 µM): 94.3%
viability, T/C (second compound 10 µM, first compound 0.1 µM): 91.3%

NS(=O)(=O)OCC1CC(n2ccc3c(NC4CCc5ccccc54)ncnc32)CC1O (stereo not given) + NC1CCC(NC2CC2c2ccccc2)CC1
IC50 (second compound 0.1 µM): > 3000 nM
IC50 (second compound 0.316 µM): > 3000 nM
IC50 (second compound 1 µM): > 3000 nM
IC50 (second compound 3.16 µM): > 3000 nM
IC50 (second compound 10 µM): > 3000 nM
viability, T/C [1]: 109%
viability, T/C [2]: 103%
viability, T/C [3]: 79.6%
viability, T/C [4]: 89.3%
viability, T/C [5]: 84.7%
viability, T/C [6]: 71.4%
viability, T/C [7]: 108%
viability, T/C [8]: 104%
viability, T/C [9]: 79.2%
viability, T/C [10]: 78%
viability, T/C [11]: 78.6%
viability, T/C [12]: 72.7%
viability, T/C [13]: 103%
viability, T/C [14]: 101%
viability, T/C [15]: 76.2%
viability, T/C [16]: 81.8%
viability, T/C [17]: 82.7%
viability, T/C [18]: 77.6%
viability, T/C [19]: 92.5%
viability, T/C [20]: 109%
viability, T/C [21]: 77.7%
viability, T/C [22]: 80.5%
viability, T/C [23]: 76.9%
viability, T/C [24]: 71.6%
viability, T/C [25]: 102%
viability, T/C [26]: 95.4%
viability, T/C [27]: 73.6%
viability, T/C [28]: 83.6%
viability, T/C [29]: 78.3%
viability, T/C [30]: 64.7%

O=C(C=Cc1cccc(S(=O)(=O)Nc2ccccc2)c1)NO + NC1CCC(NC2CC2c2ccccc2)CC1
IC50 (second compound 0.1 µM): 163 nM
IC50 (second compound 0.316 µM): 139 nM
IC50 (second compound 1 µM): 158 nM
IC50 (second compound 3.16 µM): 145 nM
IC50 (second compound 10 µM): 138 nM
viability, T/C [1]: 99.6%
viability, T/C [2]: 103%
viability, T/C [3]: 75.4%
viability, T/C [4]: 21.1%
viability, T/C [5]: 0.51%
viability, T/C [6]: 0.44%
viability, T/C [7]: 93.9%
viability, T/C [8]: 101%
viability, T/C [9]: 65.8%
viability, T/C [10]: 16.7%
viability, T/C [11]: 0.24%
viability, T/C [12]: 1.63%
viability, T/C [13]: 94.5%
viability, T/C [14]: 93.4%
viability, T/C [15]: 75.4%
viability, T/C [16]: 18.4%
viability, T/C [17]: 0.31%
viability, T/C [18]: 0.36%
viability, T/C [19]: 96.9%
viability, T/C [20]: 92.3%
viability, T/C [21]: 68.5%
viability, T/C [22]: 18.5%
viability, T/C [23]: 0.41%
viability, T/C [24]: 0.27%
viability, T/C [25]: 88.8%
viability, T/C [26]: 89.8%
viability, T/C [27]: 64.7%
viability, T/C [28]: 18.6%
viability, T/C [29]: 0.76%
viability, T/C [30]: 0.84%
